Experimental data reported in patent US8614201B2 (Janssen Pharmaceutica NV, priority 2009, dated 2013).

Target: Human TRPA1 (Homo sapiens, UniProt O75762)
Test: Alternative TRPA1 Ca2+ fluorometry assay (hTRPA1/TREx-HEK293 cells, Fluo-4, FDSS 6000)
Format: cell-based
Set-up: expressed in transfected cells
Conditions: Fluo-4-AM, agonist 6,11-dihydro-5H-dibenzo[b,e]azepine-10-carboxylic acid methyl ester 25 nM, procedure used for Examples 184, 190 to 192, 194 to 316
Procedure: In alternative embodiments, the assay was performed using the following procedure for Examples 184, 190 to 192, and 194 to 316:
The human TRPA1 gene was cloned into the pT-Rex-Dest30 inducible vector and stably transfected in T-Rex™-293 cells (Invitrogen, Merelbeke, Belgium). This tetracycline inducible hTRPA1 expression system was used in order to prevent CA^2+ overload in the cultured cells due to sustained TRPA1 expression. hTRPA1/TREx-HEK293 cells (referred to as jTRPA1 cells in the following text) were maintained under standard sterile cell culture conditions. The culture medium for the jTRPA1-HEK cells was DMEN (Gibco BRL, Invitrogen, Merelbeke, Belgium) supplemented with 5 g/l gengticin (Gibco), 5 mL/l blasticidin (Invitorgen), 14.6 g/l L-Glutamine (200 mMl; Gibco), 5 g/l penicillin/streptomycin (5.10-6 IU/I, Gibco), 5.5 g/l pyruvic acid (Gibco) and 10% foetal calf serum (Hyclone, Logan Utah, USA).
For Ca^2+ fluorometry experiments, hTRPA1-HEK cells were resuspended in HBSS seeding medium: HBSS (with CaCl2 and MgCl2: Gibco) supplemented with 14.6 g/l L-Glutamine (200 mM; Gibco), 5 g/l penicillin/streptomycin (5.10-6 IU/l. Gibco), 5.5 g/l pyruvic acid (Gibco) and 10% foetal calf serum (heat inactivated for 30 minutes at 56° C.; Hyclone, Logan Utah, USA). The cells were seeded in poly-D-lysine-coated 384-well round bottom polypropylene plates (Costar Corning, Data Packaging, Cambridge Mass., USA) at 12000 cells/well. Fifty ng/ml tetracycline was added to induce the hTRPA1 expression 24 h before the experiment.
The cells were loaded with 5 mg/l Fluo-4-AM (Molecular Probes, Invitorgen, Merelbeke, Belgium) dissolved in HBSS seeding medium supplemented with 0.7 g/l Probenecid (Sigma) and incubated for 1 h at 37° C. and subsequently at 20° C. for 1 to 2 h. The fluorescence was measured in the FDSS 6000 imaging based plate reader (Hamamutsu Photonics K.K., Hamamutsu City, Japan). The excitation wavelength was 488 nm and the emission wavelength 540 nm. After a control period of 12 seconds the inventive compounds were added and the Ca^2+ signal was measured within 14 minutes after application. Finally, a TRPA1 agonist, 6,11-dihydro-5H-dibenzo[b,e]azepine-10-carboxylic acid methyl ester, was added at a final concentration of 25 nM. The emission ratio was calculated by dividing the emission signal (Em540) by the first EM540 signal of the control period to compensate for the background fluorescence. […] For intracellular Ca^2+ measurements, a compound stock solution (10 to 100 mM) was further diluted in DMSO in order to obtain a final 1% DMSO concentration in the extracellular solution.

Sequence of Human TRPA1 (O75762 whole entry): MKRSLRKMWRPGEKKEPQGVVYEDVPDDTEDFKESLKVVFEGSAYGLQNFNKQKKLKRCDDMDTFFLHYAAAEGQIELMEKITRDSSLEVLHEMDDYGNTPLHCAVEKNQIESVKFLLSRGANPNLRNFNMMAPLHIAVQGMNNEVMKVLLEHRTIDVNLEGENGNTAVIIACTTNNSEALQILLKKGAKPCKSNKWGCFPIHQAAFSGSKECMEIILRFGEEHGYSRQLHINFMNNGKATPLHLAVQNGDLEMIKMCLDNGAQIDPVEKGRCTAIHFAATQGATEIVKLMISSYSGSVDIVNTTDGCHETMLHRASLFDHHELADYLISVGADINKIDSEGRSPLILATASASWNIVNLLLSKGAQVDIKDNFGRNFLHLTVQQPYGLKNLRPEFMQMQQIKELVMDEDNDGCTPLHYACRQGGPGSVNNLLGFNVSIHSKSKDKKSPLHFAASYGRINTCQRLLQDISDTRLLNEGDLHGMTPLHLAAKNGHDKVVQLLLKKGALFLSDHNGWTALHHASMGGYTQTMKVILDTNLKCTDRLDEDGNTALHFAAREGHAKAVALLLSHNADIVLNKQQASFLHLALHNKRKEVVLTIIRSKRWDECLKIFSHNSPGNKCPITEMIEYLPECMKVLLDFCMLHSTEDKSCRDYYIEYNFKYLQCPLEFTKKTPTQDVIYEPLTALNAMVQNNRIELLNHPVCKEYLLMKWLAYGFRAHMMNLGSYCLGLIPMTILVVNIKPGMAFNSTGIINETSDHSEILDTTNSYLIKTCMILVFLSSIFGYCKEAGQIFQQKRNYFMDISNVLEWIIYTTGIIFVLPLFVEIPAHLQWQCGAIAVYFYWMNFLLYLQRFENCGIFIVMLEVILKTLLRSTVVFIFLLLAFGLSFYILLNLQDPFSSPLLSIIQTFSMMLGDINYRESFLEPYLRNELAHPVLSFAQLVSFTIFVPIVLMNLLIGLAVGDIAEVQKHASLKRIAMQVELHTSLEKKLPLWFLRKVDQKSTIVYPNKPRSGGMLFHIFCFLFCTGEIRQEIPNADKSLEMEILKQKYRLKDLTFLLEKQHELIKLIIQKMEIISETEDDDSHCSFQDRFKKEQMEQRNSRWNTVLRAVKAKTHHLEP

IC50	SMILES
575 nM	CCOC(=O)C1CCN(c2nc(CNC(=O)[C@@H]3CCCN3S(=O)(=O)c3ccc(F)cc3)cc(-c3ccc(C(F)(F)F)cc3)n2)CC1 (racemic) [Example 194, 1-[4-({[1-(4-Fluoro-benzenesulfonyl)-pyrrolidine-2S-carbonyl]-amino}-methyl)-6-(4-trifluoromethyl-phenyl)-pyrimidin-2-yl]-piperidine-4(R,S)-carboxylic acid ethyl ester]
~33 nM	O=C(NCc1cc(-c2ccc(C(F)(F)F)cc2)nc(C(F)(F)F)n1)[C@@H]1CCCN1S(=O)(=O)c1ccc(F)cc1 [Example 184, 1-(4-Fluoro-benzenesulfonyl)-pyrrolidine-2S-carboxylic acid [2-trifluoromethyl-6-(4-trifluoromethyl-phenyl)-pyrimidin-4-ylmethyl]-amide]
~1950 nM	O=C(NCc1cc(-c2ccc(C(F)(F)F)cc2)nc(N2CCC[C@H]2CO)n1)[C@@H]1CCCN1S(=O)(=O)c1ccc(F)cc1 [Example 190, 1-(4-Fluoro-benzenesulfonyl)-pyrrolidine-2S-carboxylic acid [2-(2S-hydroxymethyl-pyrrolidin-1-yl)-6-(4-trifluoromethyl-phenyl)-pyrimidin-4-ylmethyl]-amide]
2140 nM	O=C(NCc1cc(-c2ccc(C(F)(F)F)cc2)nc(N[C@@H](CO)Cc2ccccc2)n1)[C@@H]1CCCN1S(=O)(=O)c1ccc(F)cc1 [Example 191, 1-(4-Fluoro-benzenesulfonyl)-pyrrolidine-2S-carboxylic acid [2-(1S-hydroxymethyl-2-phenyl-ethylamino)-6-(4-trifluoromethyl-phenyl)-pyrimidin-4-ylmethyl]-amide]
~588 nM	O=C(NCc1cc(-c2ccc(C(F)(F)F)cc2)nc(NC2CC2)n1)[C@@H]1CCCN1S(=O)(=O)c1ccc(F)cc1 [Example 192, 1-(4-Fluoro-benzenesulfonyl)-pyrrolidine-2S-carboxylic acid [2-cyclopropylamino-6-(4-trifluoromethyl-phenyl)-pyrimidin-4-ylmethyl]-amide]
617 nM	O=C(NCc1cc(-c2ccc(C(F)(F)F)cc2)nc(NCCc2ccc(Cl)cc2Cl)n1)[C@@H]1CCCN1S(=O)(=O)c1ccc(F)cc1 [Example 195, 1-(4-Fluoro-benzenesulfonyl)-pyrrolidine-2S-carboxylic acid [2-[2-(2,4-dichloro-phenyl)-ethylamino]-6-(4-trifluoromethyl-phenyl)-pyrimidin-4-ylmethyl]-amide]
~4790 nM	CN1CCCC1CCNc1nc(CNC(=O)[C@@H]2CCCN2S(=O)(=O)c2ccc(F)cc2)cc(-c2ccc(C(F)(F)F)cc2)n1 (stereo partly drawn) [Example 196, 1-(4-Fluoro-benzenesulfonyl)-pyrrolidine-2S-carboxylic acid [2-[2-(1-methyl-pyrrolidin-2(R,S)-yl)-ethylamino]-6-(4-trifluoromethyl-phenyl)-pyrimidin-4-ylmethyl]-amide]
~1150 nM	COc1ccc(CCNc2nc(CNC(=O)[C@@H]3CCCN3S(=O)(=O)c3ccc(F)cc3)cc(-c3ccc(C(F)(F)F)cc3)n2)cc1OC [Example 197, 1-(4-Fluoro-benzenesulfonyl)-pyrrolidine-2S-carboxylic acid [2-[2-(3,4-dimethoxy-phenyl)-ethylamino]-6-(4-trifluoromethyl-phenyl)-pyrimidin-4-ylmethyl]-amide]
~3020 nM	CN1CCCN(c2nc(CNC(=O)[C@@H]3CCCN3S(=O)(=O)c3ccc(F)cc3)cc(-c3ccc(C(F)(F)F)cc3)n2)CC1 [Example 198, 1-(4-Fluoro-benzenesulfonyl)-pyrrolidine-2S-carboxylic acid [2-(4-methyl-[1,4]diazepan-1-yl)-6-(4-trifluoromethyl-phenyl)-pyrimidin-4-ylmethyl]-amide]
~3310 nM	NS(=O)(=O)c1ccc(CCNc2nc(CNC(=O)[C@@H]3CCCN3S(=O)(=O)c3ccc(F)cc3)cc(-c3ccc(C(F)(F)F)cc3)n2)cc1 [Example 199, 1-(4-Fluoro-benzenesulfonyl)-pyrrolidine-2S-carboxylic acid [2-[2-(4-sulfamoyl-phenyl)-ethylamino]-6-(4-trifluoromethyl-phenyl)-pyrimidin-4-ylmethyl]-amide]
3310 nM	C#CCNc1nc(CNC(=O)[C@@H]2CCCN2S(=O)(=O)c2ccc(F)cc2)cc(-c2ccc3c(c2)OCO3)n1 [Example 200, 1-(4-Fluoro-benzenesulfonyl)-pyrrolidine-2S-carboxylic acid (6-benzo[1,3]dioxol-5-yl-2-prop-2-ynylamino-pyrimidin-4-ylmethyl)-amide]
8130 nM	O=C(NCc1cc(-c2ccc3c(c2)OCO3)nc(NCc2cccnc2)n1)[C@@H]1CCCN1S(=O)(=O)c1ccc(F)cc1 [Example 201, 1-(4-Fluoro-benzenesulfonyl)-pyrrolidine-2S-carboxylic acid {6-benzo[1,3]dioxol-5-yl-2-[(pyridin-3-ylmethyl)-amino]-pyrimidin-4-ylmethyl}-amide]
~2400 nM	CCCCNc1nc(CNC(=O)[C@@H]2CCCN2S(=O)(=O)c2ccc(F)cc2)cc(-c2ccc3c(c2)OCO3)n1 [Example 202, 1-(4-Fluoro-benzenesulfonyl)-pyrrolidine-2S-carboxylic acid (6-benzo[1,3]dioxol-5-yl-2-butylamino-pyrimidin-4-ylmethyl)-amide]
~6460 nM	O=C(NCc1cc(-c2ccc3c(c2)OCO3)nc(NCCc2ccccn2)n1)[C@@H]1CCCN1S(=O)(=O)c1ccc(F)cc1 [Example 203, 1-(4-Fluoro-benzenesulfonyl)-pyrrolidine-2S-carboxylic acid [6-benzo[1,3]dioxol-5-yl-2-(2-pyridin-2-yl-ethylamino)-pyrimidin-4-ylmethyl]-amide]
~2690 nM	O=C(NCc1cc(-c2ccc3c(c2)OCO3)nc(NC2CCCC2)n1)[C@@H]1CCCN1S(=O)(=O)c1ccc(F)cc1 [Example 204, 1-(4-Fluoro-benzenesulfonyl)-pyrrolidine-2S-carboxylic acid (6-benzo[1,3]dioxol-5-yl-2-cyclopentylamino-pyrimidin-4-ylmethyl)-amide]
~1780 nM	CCOC(=O)C1CCN(c2nc(CNC(=O)[C@@H]3CCCN3S(=O)(=O)c3ccc(F)cc3)cc(-c3ccc4c(c3)OCO4)n2)CC1 [Example 205, 1-[4-Benzo[1,3]dioxol-5-yl-6-({[1-(4-fluoro-benzenesulfonyl)-pyrrolidine-2S-carbonyl]-amino}-methyl)-pyrimidin-2-yl]-piperidine-4-carboxylic acid ethyl ester]
4470 nM	O=C(NCc1cc(-c2ccc3c(c2)OCO3)nc(N2CCN(c3ccccn3)CC2)n1)[C@@H]1CCCN1S(=O)(=O)c1ccc(F)cc1 [Example 206, 1-(4-Fluoro-benzenesulfonyl)-pyrrolidine-2S-carboxylic acid [6-benzo[1,3]dioxol-5-yl-2-(4-pyridin-2-yl-piperazin-1-yl)-pyrimidin-4-ylmethyl]-amide]
9120 nM	O=C(NCc1cc(-c2ccc3c(c2)OCO3)nc(N2CCOCC2)n1)[C@@H]1CCCN1S(=O)(=O)c1ccc(F)cc1 [Example 207, 1-(4-Fluoro-benzenesulfonyl)-pyrrolidine-2S-carboxylic acid (6-benzo[1,3]dioxol-5-yl-2-morpholin-4-yl-pyrimidin-4-ylmethyl)-amide]
